Where “and” joins values, the source holds several entries; their conditions need not be identical. Equal values may be shown once.
What was measured:
[1] = tested on: normal human fibroblasts (NHF); experiment: Comet test: UV-A-induced DNA damage in normal human fibroblasts; format: cell-based; conditions: 24 hours contact, UV-A = 30 min
Excerpt: Solar UV is capable of giving rise to extensive oxidative damage in skin cells, and especially in DNA. The nucleic acids absorb the UV-B photons, thus inducing DNA damage directly. Although UV-A is not directly absorbed by DNA, it has a genotoxic action mediated by reactive oxygen species. The comet test makes it possible to quantify the UV-induced DNA damage (in this case UV-A): the breaking of strands and oxidative DNA lesions (alkali-labile sites cleaved under alkaline conditions) are detected. The principle of this test is based on the capacity of denatured and cleaved DNA fragments to migrate outside the cell nuclei, under the influence of an electric field, whereas undamaged DNA remains confined in the nucleus. The damaged DNA fragments form a trail behind the cell nucleus. The cells then take the appearance of “comets”. The “tail” of each comet is proportionately larger and stronger the greater the DNA damage incurred. (Alapetite C. et al., 1996, Int. J. Rad. Bio.; Klaude M, et al., 1996, Mut. Res.; Lehmann J. et al., 1998, Mut. Res.; Singh N P. et al., 1988, Exp. Cell Res.).
The study consisted in evaluating the photoprotective effect of two molecules with respect to UV-A-induced DNA damage. To do this, normal human fibroblasts (NHF) were placed in contact with the active agents for 24 hours. The cells were then detached, included in an agarose gel and then deposited on a microscope slide. Following the UV-A exposure (for 30 minutes), the cells were subjected to cell lysis (so as to keep intact only the genetic material), to a DNA-denaturing step and then to electrophoresis to make the damaged DNA migrate. The level of damaged DNA was measured using a fluorescence microscope combined with specialized image analysis software.

HaCaT cells = experiment: MCB test on HaCaT: intracellular GSH level after UV daylight (UV-DL) exposure; format: cell-based, human; conditions: for activity at 30 µM / inhibition at 30 µM / activity at 100 µM / inhibition at 100 µM: Homo sapiens, t=6 hours after exposure; for activity at 30 µM / activity at 100 µM: GSH-monochlorobimane fluorescence, HaCaT pretreated and exposed to UV-DL, read-out: % fluo; for inhibition at 30 µM / inhibition at 100 µM: against UV-DL-induced depletion of GSH, read-out: % protection; for inhibition at 30 µM / inhibition at 100 µM / protection against the UV-DL-induced depletion of GSH: HaCaT
Procedure: The study consisted in evaluating at the cellular level the protective effect of the reference molecule, lipoic acid, and also of lipoic acid derivatives according to the invention, with respect to the UV-DL-induced depletion of intracellular GSH.
To do this, HaCaT cells were exposed to UV daylight (UV-DL). The level of intracellular GSH was then measured, thus allowing evaluation of the possible protection afforded by the addition to the culture medium of the lipoic acid derivatives according to the invention.
UV daylight corresponds to the radiation of non-zenithal sunlight and to an average spectral illumination: it […] the radiation received by the skin of an individual in the course of a day and not solely to that corresponding to exposure to zenithal sunlight. Devices for reproducing this radiation are described in FR 2,863,356. The evaluation technique uses a fluorescent probe, monochlorobimane (MCB). […] The specificity of MCB towards GSH in our keratinocyte model (HaCaT line) was confirmed previously. Pretreatment of cells with the reference molecule, lipoic acid, for 24 hours at 1 mM affords approximately 100% protection against the UV-DL-induced depletion of GSH (see FIG. 1 showing the evaluation of the protective effect of lipoic acid at 1 mM in the MCB test on HaCaT: the measurement of the level of intracellular GSH is performed on keratinocytes that are or are not pretreated with lipoic acid at 1 mM and exposed to UV-DL at t=0, t=6 hours and t=24 hours after the exposure to UV-DL); this protection is about 83% at 500 μM and about 10% at 100 μM.
Evaluation of the protective effect of compound 1 at 100 μM and at 30 μM of compounds 9, 10, 2, 13, 14, 12, 24, 26 and 27 is performed in the MCB test on HaCaT: evaluation of the protective effect of the silyl dithiolane compounds of WO 2008/058 999 at 100 μM is also performed in the MCB test on HaCaT: the compound 5-(1,2-dithiolan-3-yl)-N-[3-(trimethylsilyl)propyl]pentanamide and the compound (trimethylsilyl)methyl 5-(1,2-dithiolan-3-yl)pentanoate. Measurement of the intracellular level of GSH is performed on keratinocytes that have or have not been pretreated with the active agents and exposed to UV-DL, t=6 hours after the exposure to UV-DL). The results are given in the graphs in FIGS. 2 and 3.

## CC1(C(N)=O)CSSC1 [Compound 2, 4-methyl-1,2-dithiolane-4-carboxamide]
[1]; 10 μM
  % of DNA damage: 37.1%
  % protection: 63% and 62.9%
  Mean TM (DNA damage): 2.73
HaCaT cells
  activity at 30 µM: 92%
  inhibition at 30 µM: 86%

## COC(=O)C(CCSC)NC(=O)C1(C)CSSC1 (stereo not shown) [Compound 12, methyl 2-{[(4-methyl-1,2-dithiolan-4-yl)carbonyl]amino}-4-(methylsulfanyl)butanoate]
HaCaT cells
  activity at 30 µM: 78%
  inhibition at 30 µM: 61%

## CC1(C(=O)O)CSSC1 [Compound 1, 4-methyl-1,2-dithiolane-4-carboxylic acid]
[1]; 1 μM
  % of DNA damage: 80.7%
  % protection: 19.3%
  Mean TM (DNA damage): 9.38
[1]; 1 μM, listed as compound 1
  % protection: 20%
[1]; 10 μM
  % of DNA damage: 69.4%
  % protection: 30.6%
  Mean TM (DNA damage): 8.06
[1]; 10 μM, listed as compound 1
  % protection: 30%
HaCaT cells
  activity at 100 µM: 88%
  inhibition at 100 µM: 74%

## O=C(O)CCCCC1CCSS1 (stereo not shown) [lipoic acid, 1,2-dithiacyclopentane-3-valeric acid, reference compound]
HaCaT cells
  activity at 100 µM: 63%
  inhibition at 100 µM: 13%
HaCaT cells; pretreatment at 100 μM
  protection against the UV-DL-induced depletion of GSH: about 10%
HaCaT cells; pretreatment at 500 μM
  protection against the UV-DL-induced depletion of GSH: about 83%
HaCaT cells; pretreatment for 24 hours at 1 mM
  protection against the UV-DL-induced depletion of GSH: approximately 100%

## CCCCCCCCOC(=O)C1(C)CSSC1 [Compound 9, octyl 4-methyl-1,2-dithiolane-4-carboxylate]
HaCaT cells
  activity at 30 µM: 80%
  inhibition at 30 µM: 66%

## CC(=O)NCCSC(=O)C1(C)CSSC1 [Compound 13, S-[2-(acetylamino)ethyl]4-methyl-1,2-dithiolane-4-carbothioate]
HaCaT cells
  activity at 30 µM: 71%
  inhibition at 30 µM: 50%

## C[Si](C)(C)COC(=O)CCCCC1CCSS1 (stereo not shown) [(trimethylsilyl)methyl 5-(1,2-dithiolan-3-yl)pentanoate, reference compound]
HaCaT cells
  activity at 100 µM: 76%
  inhibition at 100 µM: 42%

## CC1(C(N)=O)CS[S+]([O-])C1 (stereo not shown) [Compound 26, 4-methyl-1,2-dithiolane-4-carboxamide 1-oxide]
HaCaT cells
  activity at 30 µM: 117%
  inhibition at 30 µM: 169%

## CC1(C(=O)NCCO)CSSC1 [Compound 14, N-(2-hydroxyethyl)-4-methyl-1,2-dithiolane-4-carboxamide]
HaCaT cells
  activity at 30 µM: 78%
  inhibition at 30 µM: 61%

## CC1(C(N)=O)CSS(=O)(=O)C1 (stereo not shown) [Compound 27, 4-methyl-1,2-dithiolane-4-carboxamide 1,1-dioxide]
HaCaT cells
  activity at 30 µM: 100%
  inhibition at 30 µM: 101%

## CC1(C(=O)O)CSS(=O)(=O)C1 (stereo not shown) [Compound 24, 4-methyl-1,2-dithiolane-4-carboxylic acid 1,1-dioxide]
HaCaT cells
  activity at 30 µM: 91%
  inhibition at 30 µM: 63%

## C[Si](C)(C)CCCNC(=O)CCCCC1CCSS1 (stereo not shown) [5-(1,2-dithiolan-3-yl)-N-[3-(trimethylsilyl)propyl]pentanamide, reference compound]
HaCaT cells
  activity at 100 µM: 75%
  inhibition at 100 µM: 41%

## CCCCCCCNC(=O)C1(C)CSSC1 [Compound 10, N-heptyl-4-methyl-1,2-dithiolane-4-carboxamide]
HaCaT cells
  activity at 30 µM: 99%
  inhibition at 30 µM: 98%
